Data taken from publication PMC8765781, “A platform of assays for the discovery of anti-Zika small-molecules with activity in a 3D-bioprinted outer-blood-retina model” (PLoS ONE, 2022).
Read-outs that look alike come from different tables or passages of the source.

Tests used:
[1] = test system: ZIKV-RLuc (Cambodian strain FSS13025); assay: microbe, parasite or virus in culture; assay type: cell-based, Zika virus
[2] = Zika virus, Vero, read-out: Log AC50 (M) (converted)

| Structure (SMILES) | CC-v2 (curve class classification v2 of the dose response curve) [1] | Efficacy (difference between neutral response and maximum compound response) [1] | Max Resp (difference between neutral response and compound response for highest compound concentration) [1] | AC50 ([1]; Zika virus, Vero) | AC50 [1, 2] | AC50 (Vero cells) | Log AC50 (M) (Vero cells) | Curve class [1] | Efficacy [1] | Emax ([1]; Zika virus, Vero, read-out: Max response) | Efficacy (difference between neutral response and maximum compound response) (Vero cells) | Max Resp (difference between neutral response and compound response for highest compound concentration) (Vero cells) |
| --- | --- | --- | --- | --- | --- | --- | --- | --- | --- | --- | --- | --- |
| O=C(NCc1ccccc1)c1csc(Nc2ccncn2)n1 [NCGC00187983-01] | -2.1 | -99.244 | -100.568 | 1.47e-05 M | 1.47e-05 M | 14.7 µM | -4.8327 M |  |  |  |  |  |
| CC(NCc1ccc2c(c1)[nH]/c(=N\C(=O)c1ccc(-c3cn[nH]c3)s1)n2CC(C)(C)O)C(C)(C)C (stereo not drawn) [NCGC00188382-05] | -1.1 | -97.056 | -99.599 | 1.47e-06 M | 1.47e-06 M | 1.47 µM | -5.8327 M |  |  |  |  |  |
| ClC1=C(Cl)[C@]2(Cl)[C@@H]3[C@@H]4C[C@@H]([C@H]5O[C@@H]45)[C@@H]3[C@@]1(Cl)C2(Cl)Cl [NCGC00244579-01] | -3 | -117.983 | -96.11 | 7.59e-05 M | 7.59e-05 M | 75.9 µM | -4.1199 M |  |  |  |  |  |
| CC(=O)O/N=C1\C(=O)N(Cc2cc(Cl)ccc2Cl)c2ccc(Cl)cc21 [NCGC00247668-01] | -2.1 | -136.639 | -99.757 | 1.65e-05 M | 1.65e-05 M | 16.5 µM | -4.7827 M |  |  |  |  |  |
| N=c1c2c(-c3ccccc3)c(-c3ccccc3)n(Cc3ccccc3)c2ncn1C1CCC(O)CC1 (stereo not drawn) [NCGC00247785-05] | -1.1 | -97.244 | -99.645 | 4.96e-06 M | 4.96e-06 M | 4.96 µM | -5.3045 M |  |  |  |  |  |
| COc1c(C)cnc(Cn2cnc3c(Cl)nc(N)nc32)c1C [NCGC00247877-01] | -1.2 | -34.341 | -31.198 | 1.85e-07 M | 1.85e-07 M | 0.185 µM | -6.7327 M |  |  |  |  |  |
| CCNC(=O)c1noc(-c2cc(C(C)C)c(O)cc2O)c1-c1ccc(CN2CCOCC2)cc1 [NCGC00247878-08] | -2.3 | -68.402 | -90.15 | 3.69e-05 M | 3.69e-05 M | 36.9 µM | -4.4327 M |  |  |  |  |  |
| CCNC(=O)c1cc2c(-c3cc(OCCN4CCCC4)c(Cl)cc3Cl)nc(N)nc2s1 [NCGC00247879-01] |  |  |  |  |  |  |  | 4 | -14.131 | 2.04% | -14.131 | 2.045 |
| O=C(N[C@@H](c1ccccc1)[C@@H]1CCCCN1)c1cccc(C(F)(F)F)c1Cl [NCGC00247954-02] | -2.1 | -87.335 | -99.352 | 4.27e-05 M | 4.27e-05 M | 42.7 µM | -4.3699 M |  |  |  |  |  |
| C1=C/COCc2cc(ccc2OCCN2CCCC2)Nc2nccc(n2)-c2cccc(c2)OCC/1 [NCGC00249346-02] | -1.1 | -91.692 | -99.088 | 1.17e-06 M | 1.17e-06 M | 1.17 µM | -5.9327 M |  |  |  |  |  |
| CC(C)C[C@H](NC(=O)[C@H](CCc1ccccc1)NC(=O)CN1CCOCC1)C(=O)N[C@@H](Cc1ccccc1)C(=O)N[C@@H](CC(C)C)C(=O)[C@@]1(C)CO1 [NCGC00249613-01] | -1.1 | -103.056 | -99.72 | 2.33e-06 M | 2.33e-06 M | 2.33 µM | -5.6327 M |  |  |  |  |  |
| CCN1CCN(CC(=O)Nc2ccc(-c3cccc4c(=O)cc(N5CCOCC5)oc34)c3sc4ccccc4c23)CC1 [NCGC00250387-03] | -2.4 | -68.382 | -59.211 | 2.33e-05 M | 2.33e-05 M | 23.3 µM | -4.6327 M |  |  |  |  |  |
| CC(C)(C)OC(=O)Nc1ccc(-c2cc(C(=O)NCCCCCCC(=O)NO)no2)cc1 [NCGC00250390-04] | -2.2 | -83.763 | -67.554 | 2.09e-06 M | 2.09e-06 M | 2.09 µM | -5.6796 M |  |  |  |  |  |
| CC[C@@H]1C(=O)N(C)c2cnc(Nc3ccc(C(=O)NC4CCN(C)CC4)cc3OC)nc2N1C1CCCC1 [NCGC00253438-01] | -1.1 | -120.006 | -99.011 | 2.33e-06 M | 2.33e-06 M | 2.33 µM | -5.6327 M |  |  |  |  |  |
| NC(=O)C1(N2CCCCC2)CCN(CCCN2c3ccccc3CCc3ccc(Cl)cc32)CC1 [NCGC00253595-01] | -3 | -112.083 | -100.465 | 2.61e-05 M | 2.61e-05 M |  | -4.5827 M |  |  |  |  |  |
| C/C=C(/C)C(=O)O[C@H]1C(C)=C2[C@H]([C@@H]1OC(=O)CCCCCCC)[C@@](C)(OC(C)=O)C[C@H](OC(=O)CCC)[C@@]1(O)[C@H]2OC(=O)[C@@]1(C)O [NCGC00261947-01] | -1.2 | -69.727 | -98.941 | 3.29e-06 M | 3.29e-06 M | 3.29 µM | -5.4827 M |  |  |  |  |  |
| Cc1ccc(C(N)=O)cc1Nc1nccc(-c2cn(C(C)C)c3cnccc23)n1 [NCGC00263020-01] | -1.1 | -104.089 | -98.725 | 7.37e-06 M | 7.37e-06 M | 7.37 µM | -5.1327 M |  |  |  |  |  |
| Cc1nc2cnc3ccc(C#Cc4cccnc4)cc3c2n1-c1ccc(C(C)(C)C#N)cc1 [NCGC00263088-01] | -1.1 | -103.241 | -92.032 | 5.85e-06 M | 5.85e-06 M | 5.85 µM | -5.2327 M |  |  |  |  |  |
